Reference: ChEMBL document CHEMBL1201862, “PubChem BioAssay data set” (2004)
“And” between values parts separate entries of the source, which are not always exact repeats. Equal entries are not always repeated. The source made the active and inactive calls.

Key:
[1] = target: T1, Heat shock factor protein 1 (Mus musculus, UniProt P38532); test: inhibition of MG132-induced HSE-luciferase signal, confirmation, cell-based, NIH3T3, luminescence, dose retest (AID 2382); format: functional;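 note: NIH3T3 fibroblasts with HSF1-driven luciferase reporter stressed by proteasome inhibitor MG132; luminescence from HSF1-driven luciferase expression after 8 hours of MG132 stress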
T1 sequence (P38532 whole entry): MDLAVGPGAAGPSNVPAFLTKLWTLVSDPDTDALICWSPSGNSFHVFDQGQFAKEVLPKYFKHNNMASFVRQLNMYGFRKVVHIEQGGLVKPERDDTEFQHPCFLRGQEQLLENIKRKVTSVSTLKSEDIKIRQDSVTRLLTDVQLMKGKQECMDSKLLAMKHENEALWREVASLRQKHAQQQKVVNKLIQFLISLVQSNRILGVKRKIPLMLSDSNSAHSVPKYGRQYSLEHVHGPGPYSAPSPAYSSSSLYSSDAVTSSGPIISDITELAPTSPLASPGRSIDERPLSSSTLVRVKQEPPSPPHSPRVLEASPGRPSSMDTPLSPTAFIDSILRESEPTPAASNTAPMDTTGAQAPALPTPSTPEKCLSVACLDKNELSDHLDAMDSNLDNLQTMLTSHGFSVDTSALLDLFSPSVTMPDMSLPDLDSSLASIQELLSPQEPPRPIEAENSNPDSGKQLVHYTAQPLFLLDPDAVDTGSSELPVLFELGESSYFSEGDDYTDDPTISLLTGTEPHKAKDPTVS

[2] = target: Cytochrome P450 2D6 (Homo sapiens, UniProt P10635);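 note: CYP2D6 member of a cytochrome P450 panel assay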
[3] = target: T2, Cytochrome P450 1A2 (Homo sapiens, UniProt P05177);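 note: PubChem cytochrome P450 panel assay, CYP1A2 panel member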
T2 sequence (P05177 whole entry): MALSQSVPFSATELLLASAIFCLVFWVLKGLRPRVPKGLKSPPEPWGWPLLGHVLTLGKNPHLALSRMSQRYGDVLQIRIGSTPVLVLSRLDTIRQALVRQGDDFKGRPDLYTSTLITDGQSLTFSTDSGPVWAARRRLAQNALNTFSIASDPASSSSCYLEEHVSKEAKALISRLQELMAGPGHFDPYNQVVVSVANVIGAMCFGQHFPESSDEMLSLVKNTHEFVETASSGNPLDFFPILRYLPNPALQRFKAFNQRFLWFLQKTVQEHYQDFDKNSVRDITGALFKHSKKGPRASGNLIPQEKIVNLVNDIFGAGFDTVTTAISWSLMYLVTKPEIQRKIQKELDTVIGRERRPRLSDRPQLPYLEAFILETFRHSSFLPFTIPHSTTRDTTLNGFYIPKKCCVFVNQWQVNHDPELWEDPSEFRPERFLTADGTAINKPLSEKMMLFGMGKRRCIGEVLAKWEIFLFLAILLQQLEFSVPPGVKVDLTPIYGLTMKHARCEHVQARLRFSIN

[4] = target: Cytochrome P450 2C19 (Homo sapiens, UniProt P33261); test: Cytochrome panel assay with activity outcomes. Panel member name: p450-cyp2c19 Compounds with AC50 equal or less than 10 uM are considered active; format: functional
[5] = target: Cytochrome P450 2C9 (Homo sapiens, UniProt P11712)
[6] = target: Cytochrome P450 3A4 (Homo sapiens, UniProt P08684);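 note: CYP3A4 tested as one member of a cytochrome P450 panel screen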
[7] = inhibitors of intracellular T. cruzi replication, confirmation, NIH3T3 host cells, beta-gal luminescence (AID 2044); format: functional, cell-based;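 note: intracellular parasites grown in NIH/3T3 mouse fibroblasts as host cells; luminescent beta-galactosidase reporter signal from transgenic T. cruzi replicating inside host cells; inhibitors lower the luminescence signal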
[8] = cytotoxicity toward NIH3T3 fibroblasts, dose response, counter-screen, cell-based, ATP luminescence, mouse fibroblasts (AID 2010); format: functional;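 note: cells exposed to compound for about 90 hours before reading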

Sequence of Cytochrome P450 2C9 (P11712 whole entry): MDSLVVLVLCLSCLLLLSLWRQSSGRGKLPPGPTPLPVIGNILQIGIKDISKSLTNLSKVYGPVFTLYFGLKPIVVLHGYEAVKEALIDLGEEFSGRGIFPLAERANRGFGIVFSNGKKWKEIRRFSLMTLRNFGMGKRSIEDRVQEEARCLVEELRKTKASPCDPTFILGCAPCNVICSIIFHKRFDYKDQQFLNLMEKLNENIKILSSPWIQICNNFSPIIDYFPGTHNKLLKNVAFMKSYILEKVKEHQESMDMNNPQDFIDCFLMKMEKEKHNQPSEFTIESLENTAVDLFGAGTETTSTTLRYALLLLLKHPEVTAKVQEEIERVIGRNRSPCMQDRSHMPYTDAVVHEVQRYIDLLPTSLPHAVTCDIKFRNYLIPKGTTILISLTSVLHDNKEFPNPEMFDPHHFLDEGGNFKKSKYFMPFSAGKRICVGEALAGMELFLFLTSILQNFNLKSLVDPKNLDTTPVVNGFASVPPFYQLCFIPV
Sequence of Cytochrome P450 2D6 (P10635 whole entry): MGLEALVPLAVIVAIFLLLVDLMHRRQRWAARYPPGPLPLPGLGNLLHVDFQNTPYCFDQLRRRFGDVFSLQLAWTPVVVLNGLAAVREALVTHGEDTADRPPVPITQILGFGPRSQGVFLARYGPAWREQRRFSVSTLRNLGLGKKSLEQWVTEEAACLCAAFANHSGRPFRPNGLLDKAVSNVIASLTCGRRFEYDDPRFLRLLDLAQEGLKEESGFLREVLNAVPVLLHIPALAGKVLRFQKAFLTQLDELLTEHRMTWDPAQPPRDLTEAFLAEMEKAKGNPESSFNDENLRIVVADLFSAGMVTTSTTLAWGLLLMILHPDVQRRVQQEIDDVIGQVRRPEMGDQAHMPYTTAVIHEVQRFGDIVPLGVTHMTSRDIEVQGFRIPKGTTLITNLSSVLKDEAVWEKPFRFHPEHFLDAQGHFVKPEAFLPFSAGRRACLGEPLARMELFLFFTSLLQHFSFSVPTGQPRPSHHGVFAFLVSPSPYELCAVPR
Sequence of Cytochrome P450 3A4 (P08684 whole entry): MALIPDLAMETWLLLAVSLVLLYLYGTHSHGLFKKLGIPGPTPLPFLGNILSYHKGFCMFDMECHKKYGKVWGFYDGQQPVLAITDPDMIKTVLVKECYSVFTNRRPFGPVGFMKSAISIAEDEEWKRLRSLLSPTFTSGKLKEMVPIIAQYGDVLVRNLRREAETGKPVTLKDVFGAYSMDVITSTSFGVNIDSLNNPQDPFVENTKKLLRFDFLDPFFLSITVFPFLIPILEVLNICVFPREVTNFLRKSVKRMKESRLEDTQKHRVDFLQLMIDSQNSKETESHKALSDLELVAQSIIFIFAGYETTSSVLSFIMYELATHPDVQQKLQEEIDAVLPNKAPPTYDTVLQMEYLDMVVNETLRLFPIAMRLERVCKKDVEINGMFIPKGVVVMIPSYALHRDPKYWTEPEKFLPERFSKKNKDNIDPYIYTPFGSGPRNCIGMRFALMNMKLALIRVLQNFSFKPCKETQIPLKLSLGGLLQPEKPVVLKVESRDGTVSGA
Sequence of Cytochrome P450 2C19 (P33261 whole entry): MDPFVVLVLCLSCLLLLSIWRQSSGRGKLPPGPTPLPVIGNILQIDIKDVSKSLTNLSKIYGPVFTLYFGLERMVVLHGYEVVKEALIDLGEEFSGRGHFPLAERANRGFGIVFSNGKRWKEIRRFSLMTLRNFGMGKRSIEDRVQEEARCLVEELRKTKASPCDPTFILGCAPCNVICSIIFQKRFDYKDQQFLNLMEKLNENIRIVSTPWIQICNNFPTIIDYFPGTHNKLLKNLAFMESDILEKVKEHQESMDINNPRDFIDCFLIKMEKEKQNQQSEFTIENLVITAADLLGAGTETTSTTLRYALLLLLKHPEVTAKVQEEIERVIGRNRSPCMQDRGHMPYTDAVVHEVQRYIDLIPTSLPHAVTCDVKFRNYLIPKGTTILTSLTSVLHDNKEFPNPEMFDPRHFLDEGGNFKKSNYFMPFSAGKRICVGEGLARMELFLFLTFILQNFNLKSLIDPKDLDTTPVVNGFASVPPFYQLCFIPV

COc1ccc(Br)cc1CN1CCN(CCO)CC1
EC50 [1]: > 195 µM (not active)

CN(C(=O)c1ccc(OC2CCN(Cc3ccccn3)CC2)cc1)C1CCCCC1
EC50 [1]: > 195 µM (not active)

COc1ccc(O[C@H]2C=C[C@@H](c3ccccc3)O[C@H]2COC(=O)CC/C(C)=N\O[C@@H](C)c2cn([C@H]3COC[C@H]3O)nn2)cc1
AC50 [2]: 7.94 µM (inconclusive)

O=C(c1cnccn1)N1CCC2(CCCN(C(c3ccccc3)c3ccccc3)C2)CC1
AC50 [3]: 20 µM (inconclusive) | AC50 ([4]; read-out: AC50): 25.1 µM (inconclusive)

Cc1ccccc1NS(=O)(=O)c1cc(C(=O)Nc2cccc(N(C)S(C)(=O)=O)c2)ccc1C
AC50 [3]: 17.8 µM (inconclusive) | AC50 [2]: 17.8 µM (inconclusive)

CCOC(=O)c1ccc(Oc2nc(NC)nc(Nc3ccccc3)n2)cc1
EC50 [1]: > 195 µM (not active)

COc1ccc(-n2nnnc2-c2cn(C)nc2C(F)(F)F)cc1
AC50 [3]: 25.1 µM (inconclusive) | AC50 [5]: 28.2 µM (inconclusive)

O=C(NNC(=O)c1cccnc1)Nc1cccc2ccccc12
AC50 [3]: 14.1 µM (inconclusive) | AC50 ([4]; read-out: AC50): 28.2 µM (inconclusive)

Cc1ccccc1NC(=O)CSc1nc(N2CCCCC2)nc(N2CCCCC2)n1
AC50 [3]: 3.55 µM (inconclusive) | AC50 [5]: 0.00891 µM (inconclusive)

CCN=C(Nc1cccc(F)c1)SC1CC(=O)N(c2ccc(OC)cc2)C1=O (stereo unspecified)
AC50 [2]: 14.1 µM (inconclusive)

CC(=O)c1c(O)cc(=O)n(-c2ccccc2)c1-c1ccc(C)cc1
AC50 [2]: 0.00501 µM (inconclusive) | AC50 [5]: 15.8 µM (inconclusive)

CCNc1ncc2nc(C)c(=O)n(Cc3cccc(OC)c3)c2n1
AC50 [2]: 25.1 µM (inconclusive)

CO[C@H]1COC(=O)[C@@H](C)COC(=O)[C@@H](COCc2ccccc2)NC(=O)C/C=C\[C@H]1C
AC50 [6]: 3.98 µM (inconclusive)

c1cc(CN2CC3(CCNCC3)C2)ccn1
AC50 [2]: 39.8 µM (inconclusive)

CCCCC1C(=O)NC(=S)NC1=O
EC50 [1]: > 195 µM (not active)

Cc1cccc(NS(=O)(=O)c2cc3c(cc2C)NC(=O)CO3)c1
EC50 [1]: > 195 µM (not active)

Cc1ccc(NC(=S)N2CCN(CCN3C(=O)c4cccc5cccc(c45)C3=O)CC2)cc1
AC50 [3]: 20 µM (inconclusive) | AC50 ([4]; read-out: AC50): 15.8 µM (inconclusive) | EC50 [7]: 0.855 µM (active) | EC50 [8]: > 60 µM (not active)

COCCCNC(=O)CC(NS(=O)(=O)c1ccc(C)cc1)c1ccc(OC)cc1 (stereo unspecified)
EC50 [1]: > 195 µM (not active)

O=[N+]([O-])c1ccc(NN=C2c3ccccc3Cc3ccccc32)c([N+](=O)[O-])c1
AC50 [3]: 0.794 µM (inconclusive)

Cc1nnc(NC(=O)CCC(=O)NCc2cccs2)s1
AC50 [5]: 31.6 µM (inconclusive) | AC50 ([4]; read-out: AC50): 22.4 µM (inconclusive)

CCc1c(C(=O)NCc2ccc3c(c2)OCO3)[nH]c(C)c1C(C)=O
AC50 [2]: 20 µM (inconclusive) | AC50 [5]: 10 µM (inconclusive)

CC(C)CC(=O)N1CCC(O)(CS(=O)(=O)Cc2ccc(Cl)cc2)CC1
AC50 [6]: 8.91 µM (inconclusive)

CC1=C/C(=N/O)C([C@H]2C=C(C)CC(C)(C)[C@@H]2O)C(C)(C)C1 (stereo partly specified)
AC50 [6]: 5.01 µM (inconclusive)

O=C(N/N=C\c1c[nH]nc1-c1ccccc1)c1cccs1
EC50 [1]: > 195 µM (not active)

CN(C)c1nc(NCc2ccccc2)nc(N/N=C/c2ccc(Cl)cc2Cl)n1
AC50 ([4]; read-out: AC50): 1 µM (inconclusive)

NC(=S)N/N=C1\CC(n2nnnc2-c2ccccc2Cl)C2COC1O2 (stereo unspecified)
EC50 [1]: > 195 µM (not active)

C/C(Cn1nc([N+](=O)[O-])cc1C)=N\NC(=O)c1ccc(O)cc1O
AC50 [3]: 25.1 µM (inconclusive) | AC50 ([4]; read-out: AC50): 7.08 µM (inconclusive)

COc1ccc(C(=O)Nc2cccc(/C(C)=N/NC(=O)c3ccc([N+](=O)[O-])cc3)c2)cc1OC
AC50 [5]: 2.51 µM (inconclusive) | AC50 ([4]; read-out: AC50): 31.6 µM (inconclusive)

c1ccc(-c2ccccn2)nc1
AC50 [3]: 25.1 µM (inconclusive)

NCCC(=O)NCCc1c[nH]cn1 [CARCININE]
AC50 [2]: 31.6 µM (inconclusive) and 10 µM (inconclusive) | AC50 [4]: inconclusive

CC(=O)Oc1ccccc1C(=O)Oc1ccccc1C(=O)O [DIPLOSALSALATE]
AC50 [3]: 12.6 µM (inconclusive) | AC50 [5]: 15.8 µM (inconclusive)
